Results: article PMC12165799, “Antimicrobial peptide developed with machine learning sequence optimization targets drug resistant Staphylococcus aureus in mice” (The Journal of Clinical Investigation, 2025)
Converted amounts (≈) assume the structure as drawn. Like-named read-outs stand apart in the source and are kept apart here.

Columns and labels:
S. aureus MW2 = assay: Minimal inhibitory concentration (MIC) assay, broth microdilution; format: cell-based, Staphylococcus aureus; settings: Staphylococcus aureus
Description: 300 Synthesis of peptides
302 Piscataway, NJ, USA).
305 Minimal inhibitory concentration (MIC) assay
We made serial dilutions of 10×
We determined the MIC using OD600
Accordingly, we added 150 mM NaCl,
319 established protocol (5).

[1] = tested on: VRSA (S. aureus VRS1) biofilm; assay: Biofilm viability assay on solid support (VRS1); format: cell-based, Staphylococcus aureus; settings: S. aureus VRS1, 10 μg/ml, 24 h in PBS
S. aureus MW2 membrane = assay: Propidium iodide-based membrane permeability; format: cell-based, Staphylococcus aureus; settings: S. aureus MW2, 60 minutes
Description: 484 min at room temperature in the dark based on a previously established protocol (8). We added 90
485 µl of the dye/bacteria mixture to 10 μl of serially diluted 10× peptide concentration in black, 96-
486 well plates (Cat. no. 3904, Corning, NY, USA) and incubated the plates for 1 hour at room
487 temperature. We measured the fluorescence with excitation and emission wavelengths of 485 nm
488 and 525 nm, respectively in endpoint assay mode using a SpectraMax i3x (Molecular Devices,
489 CA, USA) fluorescence reader.
490 Propidium iodide-based membrane permeability
491 We used a propidium iodide (Thermo Fisher Scientific, MA, USA) fluorescence-based
492 bacterial permeation assay to establish membrane-oriented interactions with the designed peptides
493 based on a previously established protocol (8). We prepared exponential phase S. aureus MW2
494 bacteria and diluted to OD600 = 0.4 in PBS. We added PI dye (final concentration = 2 µM) to the
495 bacteria in 1:10 serial dilutions in black, 96-well plates (Cat. no. 3904, Corning, NY, USA) and
496 incubated the plates for 1 hour at room temperature. We then measured the fluorescence with an
497 excitation wavelength of 584 nm and an emission wavelength of 620 nm in endpoint assay mode
498 using a SpectraMax i3x (Molecular Devices, CA, USA) fluorescence reader.
501 To determine the ATP leakage potential of the peptides, we employed a luciferase-based
502 assay(18). In brief, we washed exponential phase of S. aureus MW2 bacteria three times with PBS
503 (pH 7.4) and adjusted the washed cells to OD600 = 0.4 in PBS. Following treatment of the bacteria
504 with 32 µg/ml of CIT-8 peptide at 37°C for 30 min, we centrifuged the cells at 14,000× g for 5
505 min. We transferred 50 µl of each supernatant fraction to black, clear-bottom, 96-well plates

[2] = tested on: S. aureus MW2 biofilm formation; settings: 24 hours
Description: 349 Prevention of S. aureus MW2 biofilm formation
350 We evaluated the ability of the citropin 1.1-derived peptides to inhibit biofilm formation
351 following an established protocol with modifications (5). In short, we prepared exponential
352 cultures of S. aureus MW2 (adjusted to OD600 = 0.01) in TSB medium (supplemented with 0.2%
353 glucose) from overnight cultures. We added 90 µl of the bacterial culture to 10 µl of serially diluted
354 10× peptide solution in flat-bottomed 96-well polystyrene microtiter plates (Cat no. Corning 3595,
We used TSB medium containing
356 bacteria with water as the positive control, while TSB media with sterile water served as the
357 negative control. After incubation, we carefully removed the TSB medium and washed the wells
358 with PBS (Gibco, MD, USA) to remove loosely attached planktonic cells. We quantified the
359 biomass by staining the biofilms with crystal violet following an established protocol and
360 quantitated the concentration of peptide that inhibits 50% of biofilm formation (MBIC50)(8). We
361 measured the live cell count of the biofilms using XTT dye [2,3-bis(2-methyloxy-4-nitro-5-
362 sulfophenyl)-2H-tertazolium-5-carboxanilide] (ATCC, VA, USA).

[3] = tested on: MRSA (S. aureus MW2) biofilm; assay: Biofilm viability assay on solid support (MW2); format: cell-based, Staphylococcus aureus; settings: S. aureus MW2, 10 μg/ml, 24 h in PBS

CN[C@H](CC(C)C)C(=O)N[C@H]1C(=O)N[C@@H](CC(N)=O)C(=O)N[C@H]2C(=O)N[C@H]3C(=O)N[C@H](C(=O)N[C@H](C(=O)O)c4cc(O)cc(O)c4-c4cc3ccc4O)[C@H](O)c3ccc(c(Cl)c3)Oc3cc2cc(c3O[C@@H]2O[C@H](CO)[C@@H](O)[C@H](O)[C@H]2O[C@H]2C[C@](C)(N)[C@H](O)[C@H](C)O2)Oc2ccc(cc2Cl)[C@H]1O [Vancomycin, reference compound]
MIC (S. aureus MW2; MW2, 18 h, read-out: MIC SA): ≤ 0.125 mg/L | MIC (S. aureus MW2; read-out: MIC + MgSO4 (1 mM), S. aureus MW2, TSB + 1 mM MgSO4): ≤ 1 mg/L | MIC (S. aureus MW2; read-out: MIC + human serum (10%), S. aureus MW2, TSB + 10% human serum): ≤ 1 mg/L | MIC (S. aureus MW2; S. aureus MW2, TSB + 8 μM ZnSO4, read-out: MIC + ZnSO4 (8 μM)): ≤ 1 mg/L | MIC (S. aureus MW2; S. aureus MW2, TSB + 2.5 mM CaCl2, read-out: MIC + CaCl2 (2.5 mM)): ≤ 1 mg/L | MIC (S. aureus MW2; S. aureus MW2, TSB + 150 mM NaCl, read-out: MIC + NaCl (150 mM)): ≤ 1 mg/L | MIC (S. aureus MW2; S. aureus MW2, TSB + 5% human serum, read-out: MIC + human serum (5%)): ≤ 1 mg/L | MIC (S. aureus MW2; S. aureus MW2, TSB, read-out: MIC, Medium only): 1 mg/L (≈ 0.69 µM) | Bacterial load of 24 hour established biofilm on solid membrane ([1]; replicate 1): 40000000 | Bacterial load of 24 hour established biofilm on solid membrane ([1]; replicate 2): 40000000 | Bacterial load of 24 hour established biofilm on solid membrane ([1]; replicate 3): 60000000 | Bacterial load of 24 hour established biofilm on solid membrane ([1]; replicate 4): 60000000 | Bacterial load of 24 hour established biofilm on solid membrane ([1]; replicate 5): 20000000 | Bacterial load of 24 hour established biofilm on solid membrane ([1]; replicate 6): 20000000 | Propidium iodide fluorescence (membrane permeation) (S. aureus MW2 membrane): did not induce fluorescence | Biofilm formation, biomass (crystal violet), percentage of untreated ([2]; 4 μg/ml, replicate 1): 8.955 | Biofilm formation, live-cell viability (XTT), percentage of untreated ([2]; 4 μg/ml, replicate 1): -0.6369 | Biofilm formation, biomass (crystal violet), percentage of untreated ([2]; 4 μg/ml, replicate 2): 10.0268 | Biofilm formation, live-cell viability (XTT), percentage of untreated ([2]; 4 μg/ml, replicate 2): -0.3259 | Biofilm formation, biomass (crystal violet), percentage of untreated ([2]; 4 μg/ml, replicate 3): 18.3626 | Biofilm formation, live-cell viability (XTT), percentage of untreated ([2]; 4 μg/ml, replicate 3): -0.3777 | Biofilm formation, biomass (crystal violet), percentage of untreated ([2]; 8 μg/ml, replicate 1): 8.8836 | Biofilm formation, live-cell viability (XTT), percentage of untreated ([2]; 8 μg/ml, replicate 1): -0.674 | Biofilm formation, biomass (crystal violet), percentage of untreated ([2]; 8 μg/ml, replicate 2): 11.1462 | Biofilm formation, live-cell viability (XTT), percentage of untreated ([2]; 8 μg/ml, replicate 2): -0.4592 | Biofilm formation, biomass (crystal violet), percentage of untreated ([2]; 8 μg/ml, replicate 3): 16.9574 | Biofilm formation, live-cell viability (XTT), percentage of untreated ([2]; 8 μg/ml, replicate 3): -0.4518 | Biofilm formation, biomass (crystal violet), percentage of untreated ([2]; 16 μg/ml, replicate 1): 9.955 | Biofilm formation, live-cell viability (XTT), percentage of untreated ([2]; 16 μg/ml, replicate 1): -0.5851 | Biofilm formation, biomass (crystal violet), percentage of untreated ([2]; 16 μg/ml, replicate 2): 11.9559 | Biofilm formation, live-cell viability (XTT), percentage of untreated ([2]; 16 μg/ml, replicate 2): -0.437 | Biofilm formation, biomass (crystal violet), percentage of untreated ([2]; 16 μg/ml, replicate 3): 14.6234 | Biofilm formation, live-cell viability (XTT), percentage of untreated ([2]; 16 μg/ml, replicate 3): -0.4148 | Biofilm formation, biomass (crystal violet), percentage of untreated ([2]; 32 μg/ml, replicate 1): 10.1935 | Biofilm formation, live-cell viability (XTT), percentage of untreated ([2]; 32 μg/ml, replicate 1): -0.4962 | Biofilm formation, biomass (crystal violet), percentage of untreated ([2]; 32 μg/ml, replicate 2): 10.384 | Biofilm formation, live-cell viability (XTT), percentage of untreated ([2]; 32 μg/ml, replicate 2): -0.5555 | Biofilm formation, biomass (crystal violet), percentage of untreated ([2]; 32 μg/ml, replicate 3): 13.4802 | Biofilm formation, live-cell viability (XTT), percentage of untreated ([2]; 32 μg/ml, replicate 3): -0.4073 | Bacterial load of 24 hour established biofilm on solid membrane ([3]; replicate 1): 160000000 | Bacterial load of 24 hour established biofilm on solid membrane ([3]; replicate 2): 18000000 | Bacterial load of 24 hour established biofilm on solid membrane ([3]; replicate 3): 28000000 | Bacterial load of 24 hour established biofilm on solid membrane ([3]; replicate 4): 40000000 | Bacterial load of 24 hour established biofilm on solid membrane ([3]; replicate 5): 20000000 | Bacterial load of 24 hour established biofilm on solid membrane ([3]; replicate 6): 60000000
